Consider 16 compounds from patent US8563714B2, “Bridged spiro [2.4] heptane derivatives as ALX receptor and/or FPRL2 agonists” (Actelion Pharmaceuticals Ltd., priority 2009, dated 2013).

One assay deals with T1, human ALX receptor (Homo sapiens, UniProt P25090).
T1 construct: expressed in transfected cells; host or cells: HEK293 (HEK293-hALXR-Gα16)
T1 sequence (P25090 1-351): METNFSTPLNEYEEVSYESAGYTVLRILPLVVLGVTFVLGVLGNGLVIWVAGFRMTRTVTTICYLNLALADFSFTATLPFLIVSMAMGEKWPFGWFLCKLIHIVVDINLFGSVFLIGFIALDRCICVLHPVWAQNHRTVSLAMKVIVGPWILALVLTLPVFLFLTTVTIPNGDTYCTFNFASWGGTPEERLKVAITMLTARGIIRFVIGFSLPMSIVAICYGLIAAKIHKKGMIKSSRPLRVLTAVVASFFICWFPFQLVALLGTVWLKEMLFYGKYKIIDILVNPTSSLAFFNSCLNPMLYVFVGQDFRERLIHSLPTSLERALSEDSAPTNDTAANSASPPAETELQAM
Nature of the assay: Intracellular calcium measurements (FLIPR), agonistic activity in HEK293-hALXR-Gα16 cells. It is filed as cell-based. Conditions: Fluo-4 calcium FLIPR, normalized to WKYMVm 10 nM. The method, then:
(§1) The ALX receptor and FPRL2 agonistic activities of the compounds of formula (I) are determined in accordance with the following experimental method.
(§2) Intracellular Calcium Measurements:
Cells expressing recombinant human ALX receptor and the G-protein Gα16 (HEK293-hALXR-Gα16) were grown to 80% confluency in Growing Medium (GM). Cells were detached from culture dishes with a cell dissociation buffer (Invitrogen, 13151-014), and collected by centrifugation at 1,000 rpm at rt for 5 min in Assay Buffer (AB) (equal parts of Hank's BSS (Gibco, 14065-049) and DMEM without Phenol Red (Gibco, 11880-028)). After 60 min incubation at 37° C. under 5% CO2 in AB supplemented with 1 μM Fluo-4 (AM) (Invitrogen, F14202), and 20 mM HEPES (Gibco, 15630-056), the cells were washed and resuspended in AB. They were then seeded onto 384-well FLIPR assay plates (Greiner, 781091) at 50′000 cells in 70 μl per well and sedimented by centrifugation at 1,000 rpm for 1 min. Stock solutions of test compounds were made up at a concentration of 10 mM in DMSO, and serially diluted in AB to concentrations required for activation dose response curves. WKYMVm (Phoenix Peptides) was used as a reference agonist. FLIPR384 or FLIPR Tetra instruments (Molecular Devices) were operated according to the manufacturer's standard instructions, adding 4 μl of test compound dissolved at 10 mM in DMSO and diluted prior to the experiment in assay buffer to obtain the desired final concentration. Changes in fluorescence were monitored before and after the addition of test compounds at lex=488 nm and lem=540 nm. Emission peak values above base level after compounds addition were exported after base line subtraction. Values were normalized to high-level control (WKYMVm compound, 10 nM final concentration) after subtraction of the base line value (AB addition).

The next assay deals with T2, human FPRL2 (Homo sapiens, UniProt P25089).
T2 construct: expressed in transfected cells; host or cells: HEK293 (HEK293-hFPRL2-Gα16)
T2 sequence (P25089 1-353): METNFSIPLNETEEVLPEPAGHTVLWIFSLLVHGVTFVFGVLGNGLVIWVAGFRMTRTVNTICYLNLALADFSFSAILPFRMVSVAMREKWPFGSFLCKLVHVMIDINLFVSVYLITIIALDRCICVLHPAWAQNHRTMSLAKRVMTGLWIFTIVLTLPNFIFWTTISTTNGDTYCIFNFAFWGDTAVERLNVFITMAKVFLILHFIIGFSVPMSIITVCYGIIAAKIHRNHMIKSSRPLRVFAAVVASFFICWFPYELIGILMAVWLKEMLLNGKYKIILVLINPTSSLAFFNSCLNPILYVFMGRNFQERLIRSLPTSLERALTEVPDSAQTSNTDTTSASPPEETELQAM
The assay is described as follows: Intracellular calcium measurements (FLIPR), agonistic activity in HEK293-hFPRL2-Gα16 cells. In kind it is cell-based. Conditions: Fluo-4 calcium FLIPR, normalized to GLY14-Humanin 100 nM. The method, then:
as §1, §2
Cells expressing recombinant human FPRL2 and the G-protein Gα16 (HEK293-hFPRL2-Gα16) were grown to 80% confluency in Growing Medium (GM). […] Stock solutions of test compounds were made up at a concentration of 10 mM in DMSO, and serially diluted in AB to concentrations required for activation dose response curves. Gly14-Humanin (Humanin peptide with replacement of Serine by Glycine at position 14, Phoenix Peptides) was used as a reference agonist. FLIPR384 or FLIPR Tetra instruments (Molecular Devices) were operated according to the manufacturer's standard instructions, adding 4 μl of test compound dissolved at 10 mM in DMSO and diluted prior to the experiment in assay buffer to obtain the desired final concentration. Changes in fluorescence were monitored before and after the addition of test compounds at lex=488 nm and lem=540 nm. Emission peak values above base level after compounds addition were exported after base line subtraction. Values were normalized to high-level control (GLY14-Humanin compound, 100 nM final concentration) after subtraction of the base line value (AB addition).
For orientation: Calcium assays in cells follow changes in intracellular calcium, usually with a dye or a luminescent sensor.

Structures are written as SMILES.

As usually defined, the EC50 is the concentration at which the effect is half-maximal.

For the compound `NC(=O)CCNC(=O)[C@H]1[C@H](C(=O)Nc2ncc(Br)s2)[C@@H]2C=C[C@H]1C21CC1` [Example 240, (5R)—N^5-(5-Bromo-thiazol-2-yl)-(6R)—N^6-(3-amino-3-oxopropyl)-(4S,7R)-[4,7-ethenylene-spiro[2.4]heptane]-5,6-dicarboxamide], the EC50 on human ALX receptor was 8.1 nM; at human FPRL2, > 25000 nM.

As for `O=C(NCCCCN1CCCC1)C1C(C(=O)Nc2ccc(Cl)nc2)C2C=CC1C21CC1` (racemic) [Example 116, (5R*)—N^5-(2-Chloro-pyridin-5-yl)-(6R*)—N^6-(4-pyrrolidin-1-yl-butyl)-(4S*,7R*)-[4,7-ethenylene-spiro[2.4]heptane]-5,6-dicarboxamide], the EC50 on human ALX receptor is 7.8 nM; at human FPRL2, 891 nM.

For `O=C(N[C@@H]1CC[C@@H](CN2CCCC2)OC1)[C@H]1[C@H](C(=O)Nc2ccc(Br)cc2)[C@@H]2C=C[C@H]1C21CC1` [Example 216, (5R)—N^5-(4-Bromophenyl)-(6R)—N^6-((3R,6S)-6-(pyrrolidin-1-ylmethyl)tetrahydro-2H-pyran-3-yl)-(4S,7R)-[4,7-ethenylene-spiro[2.4]heptane]-5,6-dicarboxamide], the results for the EC50 on human ALX receptor and at human FPRL2 were 2.7 nM and 297 nM, respectively.

For `O=C(NCCN1CCCC1)[C@H]1[C@H](C(=O)Nc2ccc(Br)cc2)[C@@H]2C=C[C@H]1C21CC1` (racemic) [Example 48, (5R*)—N^5-(4-Bromophenyl)-(6R*)—N^6-(2-pyrrolidin-1-yl-ethyl)-(4S*,7R*)-[4,7-ethenylene-spiro[2.4]heptane]-5,6-dicarboxamide], the results for the EC50 at human ALX receptor and on human FPRL2 were 12 nM and 1380 nM, respectively.

For the compound `NC(=O)CCC(=O)NC[C@H]1[C@H](C(=O)Nc2ccc(Br)cc2)[C@@H]2C=C[C@H]1C21CC1` (racemic) [Example 170, (5R*)—N^5-(4-Bromo-phenyl)-(6R*)-6-{[(3-aminocarbonyl-propionyl)-amino]-methyl}-(4S*,7R*)-[4,7-ethenylene-spiro[2.4]heptane]-5-carboxamide], the concentration for a half-maximal effect (EC50) is 114 nM on human ALX receptor and > 25000 nM on human FPRL2.

Take `O=C(NCCCc1nc2ccccc2[nH]1)[C@H]1[C@H](C(=O)Nc2ccc(Br)cc2)[C@@H]2C=C[C@H]1C21CC1` (racemic) [Example 32, (5R*)—N^5-(4-Bromophenyl)-(6R*)—N^6-(3-(1H-benzoimidazol-2-yl)-propyl)-(4S*,7R*)-[4,7-ethenylene-spiro[2.4]heptane]-5,6-dicarboxamide]: the figures for the EC50 at human ALX receptor and on human FPRL2 were 5.4 nM and 3280 nM, respectively.

As to `COc1ccc(CCNC(=O)[C@H]2[C@H](C(=O)NCCCCN3CCCC3)[C@H]3C=C[C@@H]2C32CC2)cc1OC` (racemic) [Example 377, (5R*)—N^5-(2-(3,4-Dimethoxyphenyl)ethyl)-(6R*)—N^6-(4-pyrrolidino-butyl)-(4S*,7R*)-[4,7-ethenylene-spiro[2.4]heptane]-5,6-dicarboxamide], the EC50 was > 25000 nM on human ALX receptor and 417 nM at human FPRL2.

In the case of `O=C(NCCN1CCNC1=O)[C@H]1[C@H](C(=O)Nc2ncc(Br)s2)[C@@H]2C=C[C@H]1C21CC1` (racemic) [Example 260, (5R*)—N^5-(5-Bromo-thiazol-2-yl)-(6R*)—N^6-((2-imidazolidin-2-on)-1-yl-ethyl)-(4S*,7R*)-[4,7-ethenylene-spiro[2.4]heptane]-5,6-dicarboxamide], the half-maximal effective concentration (EC50) on human ALX receptor came to 9.1 nM; at human FPRL2, 8730 nM.

`O=C(NCCCCN1CCCC1)[C@H]1[C@H](C(=O)NCC2CCCCC2)[C@@H]2C=C[C@H]1C21CC1` (racemic) [Example 125, (5R*)—N^5-(Cyclohexyl-methyl)-(6R*)—N^6-(4-pyrrolidin-1-yl-butyl)-(4S*,7R*)-[4,7-ethenylene-spiro[2.4]heptane]-5,6-dicarboxamide]: the figures for the 50% effective concentration (EC50) on human ALX receptor and at human FPRL2 were 60 nM and 268 nM, respectively.

As for `O=C(NCC1CCNCC1)[C@H]1[C@H](C(=O)Nc2ccc(Br)cc2)[C@@H]2C=C[C@H]1C21CC1` (racemic) [Example 8, (5R*)—N^5-(4-Bromophenyl)-(6R*)—N^6-(4-piperidinyl-methyl)-(4S*,7R*)-[4,7-ethenylene-spiro[2.4]heptane]-5,6-dicarboxamide], the figures for the EC50 on human ALX receptor and on human FPRL2 were 0.82 nM and 2600 nM, respectively.

For `NC(=O)CCNC(=O)[C@H]1[C@H](C(=O)Nc2ccc(Cl)nc2)[C@@H]2C=C[C@H]1C21CC1` [Example 281, (5R)—N^5-(2-Chloropyrid-5-yl)-(6R)—N^6-(3-amino-3-oxopropyl)-(4S,7R)-[4,7-ethenylene-spiro[2.4]heptane]-5,6-dicarboxamide], the half-maximal effective concentration (EC50) at human ALX receptor is 31 nM; at human FPRL2, > 25000 nM.

For `NCCCCCNC(=O)[C@H]1[C@H](C(=O)Nc2ccc(Br)cc2)[C@H]2C=C[C@@H]1C21CC1` (relative stereo) [Example 340, (5R*)—N^5-(5-Aminopentyl)-(6R*)—N^6-(4-bromophenyl)-(4S*,7R*)-[4,7-ethenylene-spiro[2.4]heptane]-5,6-dicarboxamide], the EC50 at human ALX receptor came to 30 nM; on human FPRL2, 255 nM.

Consider `Cc1nc(CC(=O)NC[C@H]2[C@H](C(=O)Nc3ccc(Br)cc3)[C@@H]3C=C[C@H]2C32CC2)c(C)s1` (racemic) [Example 168, (5R*)—N^5-(4-Bromo-phenyl)-(6R*)-6-[(2-(2,5-dimethyl-thiazol-4-yl)-acetylamino)-methyl]-(4S*,7R*)-[4,7-ethenylene-spiro[2.4]heptane]-5-carboxamide], for which the figures for the 50% effective concentration (EC50) on human ALX receptor and on human FPRL2 were 71 nM and 862 nM, respectively.

`O=C(CCCN1CCCC1=O)NC[C@H]1[C@H](C(=O)Nc2ccc(Br)cc2)[C@@H]2C=C[C@H]1C21CC1` (racemic) [Example 161, (5R*)—N^5-(4-Bromo-phenyl)-(6R*)-6-[(4-(2-oxo-pyrrolidin-1-yl)-butyrylamino)-methyl]-(4S*,7R*)-[4,7-ethenylene-spiro[2.4]heptane]-5-carboxamide]: the EC50 on human ALX receptor came to 47 nM; at human FPRL2, 7920 nM.

For the compound `CCN(CC)CCCCNC(=O)C1C(C(=O)NCc2ccc(Br)cc2)C2C=CC1C21CC1` (stereo not drawn) [Example 272, (5R*)—N^5-(4-Bromophenyl-methyl)-(6R*)—N^6-(4-diethylamino-butyl)-(4S*,7R*)-[4,7-ethenylene-spiro[2.4]heptane]-5,6-dicarboxamide], the EC50 at human ALX receptor was found to be 121 nM; on human FPRL2 it was 299 nM.

On to `CN(C[C@H]1[C@H](C(=O)Nc2ccc(Br)cc2)[C@@H]2C=C[C@H]1C21CC1)C(=O)Cc1ccccc1Cl` (racemic) [Example 182, (5R*)—N^5-(4-Bromo-phenyl)-(6R*)-6-{[N-(2-(2-chloro-phenyl)-acetyl)-N-methyl-amino]-methyl}-(4S*,7R*)-[4,7-ethenylene-spiro[2.4]heptane]-5-carboxamide], for which the results for the EC50 at human ALX receptor and on human FPRL2 were 298 nM and 2020 nM, respectively.
